In patent US20220411362A1, “DITERPENOID COMPOUNDS THAT ACT ON PROTEIN KINASE C (PKC)” (K-Gen, Inc., priority 2019, published 2022):
Where two headings read alike, the source gives them in different places.

How the values were obtained:
C1b domain of human PKCδ = target: T1, C1b domain of human PKCδ (Homo sapiens, UniProt Q05655); experiment: Competitive 3H-PDBu binding to C1b domain of PKCδ; details: 3H-PDBu competition
T1 construct: Genes encoding C1b domains of human PKCα, δ, ε, θ, and PKD1 (PKCμ) were synthesized; made in house; host or cells: E. coli BL21(DE3)
T1 sequence (Q05655 230-280 limits assumed): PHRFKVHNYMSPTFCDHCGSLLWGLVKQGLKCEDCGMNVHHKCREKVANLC
Description: (§1) Compounds described in this disclosure were tested for binding affinity to C1b domain of PKC isoforms. Compound binding affinity to C1b domain of PKC isoforms was derived from competitive binding assay using radioactive tracer ^3H-PDBu and recombinant GST-C1b or full-length of human PKC proteins based on modified procedures from Methods in Molecular Biology, vol.
(§2) Genes encoding C1b domains of human PKCα, δ, ε, θ, and PKD1 (PKCμ) were synthesized and inserted into pGEX-2TK or pGEX-4T1 vectors for expression and production of GST-C1b proteins in E. coli BL21(DE3) via IPTG induction. The target proteins were purified by glutathione sepharose 4B and followed by ion exchange chromatography if needed to achieve purity >70%. Aliquots of the purified proteins were stored at −80 degree for binding assay (storage buffer: 20 mM Tris pH 8.0, 200 mM NaCl, 10% glycerol, 1 mM DTT).
(§3) The plate was incubated at 37° C. on a shaker at 300 rpm for 10 minutes and then put on ice for 20 minutes. […] The bottom of the filter plate was sealed and 50 μL of MicroScint-20 (PerkinElmer) cocktail was added to each well. ^3H-PDBu trapped in each well was counted using PerkinElmer MicroBeta2 Reader. Data were analyzed using GraphPad Prism5 with the model “log(inhibitor) vs. response-variable slope” to fit the IC50, and then IC50 was transformed to Ki using Cheng-Prusoff equation: Ki=IC50/(1+added radio ligand/Kd). Kd is the binding affinity of each protein preparation to ^3H-PDBu, determined experimentally.

C1b domain of human PKCα = target: T2, C1b domain of human PKCα (Homo sapiens, UniProt P17252); experiment: biochemical; format: binding; details: 3H-PDBu competition
T2 construct: Genes encoding C1b domains of human PKCα, δ, ε, θ, and PKD1 (PKCμ) were synthesized; made in house; host or cells: E. coli BL21(DE3)
Description: as §1, §2
The plate was incubated at 37° C. on a shaker at 300 rpm for 10 minutes and then put on ice for 20 minutes. […] The bottom of the filter plate was sealed and 50 μL of MicroScint-20 (PerkinElmer) cocktail was added to each well. ^3H-PDBu trapped in each well was counted using PerkinElmer MicroBeta2 Reader. […] Kd is the binding affinity of each protein preparation to ^3H-PDBu, determined experimentally.

C1b domain of human PKCθ = target: T3, C1b domain of human PKCθ (Homo sapiens, UniProt Q04759); experiment: Competitive 3H-PDBu binding to C1b domain of PKCθ
T3 construct: Genes encoding C1b domains of human PKCα, δ, ε, θ, and PKD1 (PKCμ) were synthesized; made in house; host or cells: E. coli BL21(DE3)
T3 sequence (Q04759 231-281 limits assumed): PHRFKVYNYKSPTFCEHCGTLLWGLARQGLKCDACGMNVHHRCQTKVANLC
Description: as §1, §2, §3

C1b domain of human PKCε = target: T4, C1b domain of human PKCε (Homo sapiens, UniProt Q02156); experiment: Competitive 3H-PDBu binding to C1b domain of PKCε
T4 construct: Genes encoding C1b domains of human PKCα, δ, ε, θ, and PKD1 (PKCμ) were synthesized; made in house; host or cells: E. coli BL21(DE3)
T4 sequence (Q02156 242-292 limits assumed): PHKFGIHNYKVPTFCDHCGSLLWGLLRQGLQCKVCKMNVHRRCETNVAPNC
Description: as §1, §2, §3

[1] = target: T5, C1b domain of human PKD1 (PKCμ) (Homo sapiens, UniProt Q15139); experiment: biochemical; format: binding
T5 construct: Genes encoding C1b domains of human PKCα, δ, ε, θ, and PKD1 (PKCμ) were synthesized; made in house; host or cells: E. coli BL21(DE3)
T5 sequence (Q15139 270-320 limits assumed): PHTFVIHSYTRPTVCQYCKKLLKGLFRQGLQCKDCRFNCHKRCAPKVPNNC
Description: as §1, §2, §3

[2] = test system: A549 non-small cell lung cancer cell line; experiment: Proliferation of A549 (CellTiter Glo); format: cell-based; details: read-out: IC50 μM (A549 Cell Line)
Description: The diterpenoid compounds were tested in A549, a non-small cell lung cancer cell line harboring a K-Ras activating mutation. Briefly, A549 cells at a density of 1,000 cells/well were seeded in 96-well plates and incubated at 37° C. for 24 hours. A series of different concentrations of compound stocks (500×) were prepared by 3-fold serial dilution in DMSO. These compounds were further diluted in culture media and then added to cells so that the final DMSO concentration was not exceeding 0.25%. After 96 hours of incubation, 50 μL of CellTiter Glo reagent (Promega) was added to each well and luminescence was measured after 10 minutes using EnVision (PerkinElmer). Luminescence from cells treated with DMSO alone was set as Max and % of inhibition was calculated as follows: Inhibition %=(Max−Sample value)/Max×100. Data was analyzed using XL-fit software (ID Business Solutions Ltd.) and IC50, relative IC50, and % of top inhibition was calculated. Some of the compounds in this disclosure were very potent in blocking proliferation of A549 lung cancer cells at low nM range. In addition, potency of inhibiting A549 proliferation correlated well with its binding affinity to PKCs for this series of compounds. In other words, higher affinity binders had stronger inhibitory effects on A549 proliferation. This further support the notion that activation, rather than inhibition, of certain PKC isoforms is required to block proliferation of cancer cells, some of which may harbor K-Ras mutations. This is in sharp contrast to previous literature and common belief that inhibition of PKC is necessary to block cancer cell growth (Kang, 2014, New Journal of Science, 2014:1-36). Data presented here is in agreement with recent findings that many loss-of-function but not gain-of-function mutations of PKC isoforms have been identified in many human cancers (Antal et al., 2015, Cell, 160:489-502).

[3] = A549, 96 hours incubation, CellTiter Glo

| SMILES | Ki (C1b domain of human PKCδ; Ki PKCδ) | Ki (C1b domain of human PKCα; Ki PKCα) | Ki [1] | IC50 ([2]; Homo sapiens, A549, 96 h) | other results |
| --- | --- | --- | --- | --- | --- |
| CC1=C[C@H]2[C@@]3(O)[C@H](C)C[C@]4(O)[C@H]([C@@H]3C=C(CO)C[C@]2(O)C1=O)C4(C)C [Compound K101-C13OH] | 6 to 8 µM | > 8 µM | 4 to 6 µM | > 30 µM | Ki (C1b domain of human PKCθ): 2 to 4 µM; Ki (C1b domain of human PKCε): 2 to 4 µM |
| CC1=C[C@H]2[C@@]3(O)[C@H](C)C[C@]4(OC(=O)C5CC6(C5)CN(C(=O)OC(C)(C)C)C6)[C@H]([C@@H]3C=C(CO)C[C@]2(O)C1=O)C4(C)C [Compound K101-C1311] | 0.001 to 0.03 µM | 0.4 to 0.8 µM | < 0.005 µM | 0.1 to 0.2 µM | Ki (C1b domain of human PKCθ): 0.001 to 0.03 µM; Ki (C1b domain of human PKCε): 0.03 to 0.06 µM |
| CC1=C[C@H]2[C@@]3(O)[C@H](C)C[C@]4(OC(=O)[C@@H](N)CCCCCCc5ccc(C(F)F)cc5)[C@H]([C@@H]3C=C(CO)C[C@]2(O)C1=O)C4(C)C [Compound K101-C137002] | 0.001 to 0.03 µM | 0.2 to 0.4 µM | 0.005 to 0.01 µM | 0.1 to 0.2 µM | Ki (C1b domain of human PKCθ): 0.001 to 0.03 µM; Ki (C1b domain of human PKCε): 0.03 to 0.06 µM |
| CC1=C[C@H]2[C@@]3(O)[C@H](C)C[C@]4(OC(=O)[C@H](N)CCCCCCc5ccc(C(F)(F)F)cc5)[C@H]([C@@H]3C=C(CO)C[C@]2(O)C1=O)C4(C)C [Compound K101-C135901] | 0.03 to 0.06 µM | 1 to 2 µM | 0.001 to 0.03 µM | 0.06 to 0.1 µM | Ki (C1b domain of human PKCθ): 0.03 to 0.06 µM |
| CC1=C[C@H]2[C@@]3(O)[C@H](C)C[C@]4(OC(=O)[C@@H](N)CCS(C)(=O)=O)[C@H]([C@@H]3C=C(CO)C[C@]2(O)C1=O)C4(C)C [Compound K101-C1326] | 0.4 to 0.8 µM | > 8 µM | 0.2 to 0.4 µM | > 30 µM |  |
| CC1=C[C@H]2[C@@]3(O)[C@H](C)C[C@]4(OC(=O)[C@H](N)CCc5ccc(C(F)(F)F)cc5)[C@H]([C@@H]3C=C(CO)C[C@]2(O)C1=O)C4(C)C [Compound K101-C135601] | 0.03 to 0.06 µM | 1 to 2 µM | 0.001 to 0.03 µM | 0.2 to 0.6 µM |  |
| CC1=C[C@H]2[C@@]3(O)[C@H](C)C[C@]4(OC(=O)CCc5c[nH]c6ncccc56)[C@H]([C@@H]3C=C(CO)C[C@]2(O)C1=O)C4(C)C [Compound K101-C1322] | 0.03 to 0.06 µM | 0.8 to 1 µM | 0.005 to 0.01 µM | 2 to 5 µM |  |
| CC1=C[C@H]2[C@@]3(O)[C@H](C)C[C@]4(OC(=O)[C@H](CC5CCCCC5)N(C)C)[C@H]([C@@H]3C=C(CO)C[C@]2(O)C1=O)C4(C)C [Compound K101-C1365] | 0.1 to 0.2 µM | 4 to 6 µM | 0.03 to 0.06 µM | 0.6 to 1 µM |  |
| CCCCCCCCCCCCCC(=O)O[C@@H]1[C@@H](C)[C@@]2(O)[C@@H](C=C(CO)C[C@]3(O)C(=O)C(C)=C[C@@H]23)[C@@H]2C(C)(C)[C@]12OC(C)=O [Compound K103, 12-O-Tetradecanoylphorbol-13-acetate, reference compound] |  |  |  |  | Ki (C1b domain of human PKCδ; read-out: Ki PKCδ): < 0.005 µM; Ki (C1b domain of human PKCθ; C1b domain of human PKCθ, 3H-PDBu competition, read-out: Ki PKCθ): < 0.005 µM; Ki (C1b domain of human PKCε; C1b domain of human PKCε, 3H-PDBu competition, read-out: Ki PKCε): < 0.005 µM; Ki ([1]; C1b domain of human PKD1 (PKCμ), 3H-PDBu competition, read-out: Ki PKD1/PKCμ): < 0.005 µM; IC50 [2, 3]: < 0.001 µM |
| CC1=C[C@H]2[C@@]3(O)[C@H](C)C[C@]4(OC(=O)[C@@H](O)Cc5ccccc5)[C@H]([C@@H]3C=C(CO)C[C@]2(O)C1=O)C4(C)C [Compound K101-C1354] | 0.03 to 0.06 µM | 1 to 2 µM | 0.001 to 0.03 µM | 0.2 to 0.6 µM |  |
| CC1=C[C@H]2[C@@]3(O)[C@H](C)C[C@]4(OC(=O)[C@@H](N)C/C=C/c5ccccc5)[C@H]([C@@H]3C=C(CO)C[C@]2(O)C1=O)C4(C)C [Compound K101-C1331] |  |  |  |  | Ki (C1b domain of human PKCδ; read-out: Ki PKCδ): 0.005 to 0.01 µM; Ki (C1b domain of human PKCα; read-out: Ki PKCα): 0.1 to 0.2 µM; Ki ([1]; read-out: Ki PKD1/PKCμ): < 0.005 µM; IC50 [2, 3]: 0.06 to 0.1 µM |
| CCCCCCCCCCCCCCCCCCC(CC(=O)O[C@@]12C[C@@H](C)[C@@]3(O)[C@@H](C=C(CO)C[C@]4(O)C(=O)C(C)=C[C@@H]34)[C@@H]1C2(C)C)C(=O)O (stereo partly shown) [Compound K101-C1352] | 0.2 to 0.4 µM | 4 to 6 µM | 0.2 to 0.4 µM | 5 to 10 µM |  |
| CCCC[C@H](N)C(=O)O[C@@]12C[C@@H](C)[C@@]3(O)[C@@H](C=C(CO)C[C@]4(O)C(=O)C(C)=C[C@@H]34)[C@@H]1C2(C)C [Compound K101-C1317] | 0.001 to 0.03 µM | 0.8 to 1 µM | < 0.005 µM | 0.6 to 1 µM |  |
| CC1=C[C@H]2[C@@]3(O)[C@H](C)C[C@]4(OC(=O)[C@H](N)CCCc5ccccc5)[C@H]([C@@H]3C=C(CO)C[C@]2(O)C1=O)C4(C)C [Compound K101-C1351] | 0.03 to 0.06 µM | 1 to 2 µM | 0.001 to 0.03 µM | 0.2 to 0.6 µM |  |
| CC1=C[C@H]2[C@@]3(O)[C@H](C)C[C@]4(OC(=O)C[C@@H](N)c5ccccc5)[C@H]([C@@H]3C=C(CO)C[C@]2(O)C1=O)C4(C)C [Compound K101-C1357] | 0.2 to 0.4 µM | > 8 µM | 0.03 to 0.06 µM | 2 to 5 µM |  |
| CC1=C[C@H]2[C@@]3(O)[C@H](C)C[C@]4(OC(=O)C[C@H](N)Cc5ccccc5)[C@H]([C@@H]3C=C(CO)C[C@]2(O)C1=O)C4(C)C [Compound K101-C1358] | 0.001 to 0.03 µM | 0.2 to 0.4 µM | 0.005 to 0.01 µM | 1 to 2 µM |  |
| CC1=C[C@H]2[C@@]3(O)[C@H](C)C[C@]4(OC(=O)C(Cc5ccccc5)C(=O)O)[C@H]([C@@H]3C=C(CO)C[C@]2(O)C1=O)C4(C)C (stereo partly shown) [Compound K101-C1353] | 0.4 to 0.8 µM | > 8 µM | 4 to 6 µM | 1 to 2 µM |  |
